In the NIST ThermoML archive (doi:10.1016/j.jct.2018.12.001):
Several values for one entry are separate records, joined by “and”; a condition that tells them apart may be missing. Equal entries are not always repeated.

How the values were obtained:
[1] = Crystal; for vapor or sublimation pressure: Calculated from knudsen effusion weight loss; for Normal melting temperature: DTA
[2] = Molar enthalpy of transition or fusion; conditions: Crystal; DSC

c1ccc(-c2cnc(-c3ccccc3)o2)cc1 [2,5-diphenyloxazole]
[1]
Conditions	vapor or sublimation pressure
328.18 K	7.2e-05 kPa
329.28 K	8.2e-05 kPa and 8.1e-05 kPa
330.3 K	9.2e-05 kPa and 9.4e-05 kPa
331.19 K	0.000103 kPa and 0.000104 kPa
332.29 K	0.000118 kPa and 0.000116 kPa
333.29 K	0.000133 kPa and 0.000135 kPa
334.19 K	0.000149 kPa and 0.000148 kPa
335.17 K	0.000167 kPa and 0.000166 kPa
336.2 K	0.000189 kPa and 0.000188 kPa
337.18 K	0.000209 kPa and 0.000212 kPa and 0.000215 kPa
338.17 K	0.000241 kPa and 0.000237 kPa and 0.000238 kPa
339.29 K	0.00027 kPa and 0.000269 kPa and 0.000268 kPa
340.25 K	0.000301 kPa and 0.0003 kPa
341.3 K	0.00034 kPa and 0.000343 kPa and 0.000342 kPa
342.3 K	0.000385 kPa and 0.000382 kPa and 0.000384 kPa

Conditions	Molar enthalpy of transition or fusion [kcal/mol]	Normal melting temperature [°C]
[1]	–	71.08
[2]	5.48	–

O=C1OC(=O)C(c2ccccc2)=C1c1ccccc1 [diphenylmaleic anhydride]
[1]
Conditions	vapor or sublimation pressure
361.07 K	0.000112 kPa and 0.000113 kPa and 0.000111 kPa
363.19 K	0.00014 kPa and 0.000138 kPa
365.3 K	0.000178 kPa and 0.000175 kPa and 0.000177 kPa
367.1 K	0.000213 kPa and 0.000215 kPa
369.26 K	0.000266 kPa and 0.000265 kPa
371.29 K	0.000335 kPa and 0.000332 kPa and 0.000331 kPa
373.08 K	0.000392 kPa and 0.000393 kPa and 0.000399 kPa
375.28 K	0.000492 kPa and 0.000483 kPa and 0.000494 kPa
377.3 K	0.00061 kPa and 0.0006 kPa and 0.00059 kPa
379.19 K	0.000733 kPa and 0.000729 kPa and 0.00074 kPa
381.16 K	0.000894 kPa and 0.000891 kPa and 0.000881 kPa
383.2 K	0.001108 kPa and 0.001106 kPa and 0.00109 kPa

Conditions	Molar enthalpy of transition or fusion [kcal/mol]	Normal melting temperature [°C]
[1]	–	157.52
[2]	6.52	–

O=C1C=C(c2ccccc2)C(=O)O1 [phenylmaleic anhydride]
[1]
Conditions	vapor or sublimation pressure
319.14 K	0.000102 kPa and 0.0001 kPa
321.22 K	0.000125 kPa and 0.000126 kPa and 0.00013 kPa
323.2 K	0.000161 kPa and 0.000164 kPa and 0.000165 kPa
325.15 K	0.000202 kPa and 0.0002 kPa and 0.000205 kPa
327.17 K	0.000252 kPa and 0.00025 kPa and 0.000255 kPa
329.3 K	0.000323 kPa and 0.000321 kPa and 0.000325 kPa
331.18 K	0.000398 kPa and 0.0004 kPa and 0.000394 kPa
333.2 K	0.0005 kPa and 0.000496 kPa
335.36 K	0.000633 kPa and 0.000631 kPa and 0.000637 kPa
337.13 K	0.000764 kPa and 0.000748 kPa and 0.000772 kPa
339.23 K	0.000919 kPa and 0.000934 kPa and 0.000926 kPa
341.31 K	0.001191 kPa and 0.001182 kPa and 0.001186 kPa

Conditions	Molar enthalpy of transition or fusion [kcal/mol]	Normal melting temperature [°C]
[1]	–	120.20
[2]	6.2	–
